{"source": "paper PMC4681097", "about": "(Chemistry & biology, 2011)", "target": "PHD2_181-426 (Homo sapiens, UniProt Q9GZT9)", "sequence (Q9GZT9 181-426)": "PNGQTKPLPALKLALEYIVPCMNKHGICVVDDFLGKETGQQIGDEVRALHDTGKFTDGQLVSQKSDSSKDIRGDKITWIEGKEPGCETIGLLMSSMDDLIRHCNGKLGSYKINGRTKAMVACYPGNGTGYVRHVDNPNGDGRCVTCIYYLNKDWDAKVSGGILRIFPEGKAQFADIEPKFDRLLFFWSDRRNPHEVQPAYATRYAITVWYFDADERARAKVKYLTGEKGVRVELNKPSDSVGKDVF", "assay": "Photo cross-linking of purified PHD2 analysed by MALDI-MS", "format": "binding", "data": [{"smiles": "O=C(O)CNC(=O)c1nc(Cl)c2ccccc2c1O", "note": "[[(1-chloro-4-hydroxyisoquinoline-3-carbonyl)-amino]-acetic acid]", "values": [{"measurement": "extent of cross-linking of PHD2 by DR025 in competition experiment", "result": "substantially reduced"}]}]}
